Reference: patent publication US3933793A, “Therapeutically active 2-aminoalkylthio-3H-1.5-benzodiazepines and process for preparing them” (Recordati S.A. Chemical and Pharmaceutical Company, priority 1971, dated 1976)
Converted amounts (≈) assume the structure as drawn. Where a name gives a salt, the structure may show the parent alone.

Tests used:
[1] = test system: Bacillus subtilis ATCC 9466; assay: Antibacterial activity, minimum inhibitory concentration; settings: ATCC9466, 18 h, read-out: minimum inhibitory concentration, B. subtilis
Method: (§1) The antibacterial activity of some of the 3H-1,5-benzodiazepines having the general formula I was tested on the following microorganisms:
(§2) Escherichia coli 100, Bacillus subtilis ATCC 9466, Micrococcus pyogenes SG-511, grown in Difco nutritive gelatin; Streptococcus pyogenes A 88 grown in Difco "Brain heart infusion agar" gelatin with 5 percent difibrinated Guinea pig blood.
(§3) The results were read after 18 hours incubation at 35°-37°C.

[2] = test system: Streptococcus pyogenes A 88; assay: as above; settings: A88, 18 h, read-out: minimum inhibitory concentration, S. pyogenes
Method: as §1, §2, §3

[3] = test system: Micrococcus pyogenes SG-511; assay: as above; settings: Staphylococcus aureus, SG511, 18 h, read-out: minimum inhibitory concentration, M. pyogenes
Method: as §1, §2, §3

[4] = test system: Escherichia coli 100; assay: as above; settings: Escherichia coli, 100, 18 h, read-out: minimum inhibitory concentration, B. coli
Method: as §1, §2, §3

[5] = test system: influenza A virus (PR8 strain); format: in vivo; settings: 0.5 MTD in 10 ml buffered saline with virus, 1 hour at 37°C

| Compound | MIC [1] [µg/mL] | MIC [2] [µg/mL] | MIC [3] [µg/mL] | MIC [4] [µg/mL] | APR8: difference between logarithms of EID95 of controls and of treated eggs [5] |
| --- | --- | --- | --- | --- | --- |
| C[N+]1(C)CCN(CCCSC2=Nc3ccccc3N=C(c3ccccc3)C2)CC1 [Compound 9, 2,gamma,N'-methyl-N-piperazine-n-propylthio-4-phenyl-3H-1,5-benzodiazepine monoiodomethylate] | 160 | 80 | 160 | – | – |
| C[N+](C)(C)CCCSC1=Nc2ccccc2N=C(c2ccccc2)C1 [Compound 12, 2,gamma,N-dimethylaminopropylthio-4-phenyl-3H-1,5-benzo-diazepine iodomethylate] | 160 | 80 | – | 80 | – |
| Clc1ccc(C2=Nc3ccccc3N=C(SCCCN3CCCC3)C2)cc1 [Compound 13, 2,gamma,N-pyrrolidinopropylthio-4,p-chlorophenyl-3H-1,5-benzodiazepine^. HCl] | 40 | 40 | 40 | 80 | – |
| C[N+]1(CCCSC2=Nc3ccccc3N=C(c3ccc(Cl)cc3)C2)CCCC1 [Compound 14, 2,gamma,N-pyrrolidinopropylthio-4,p-chlorophenyl-3H-1.5-benzodiazepine iodomethylate] | 40 | 40 | 20 | 40 | – |
| Clc1ccc(C2=Nc3ccccc3N=C(SCCN3CCCC3)C2)cc1 [Compound 15, 2,beta,N-pyrrolidinoethylthio-4,p-chlorophenyl-3H-1,5-benzodiazepine] | 20 (≈ 52.1 µM) | 40 (≈ 104 µM) | 40 (≈ 104 µM) | 80 (≈ 208 µM) | – |
| C[N+]1(CCSC2=Nc3ccccc3N=C(c3ccc(Cl)cc3)C2)CCCC1 [Compound 16, 2,β,N-pyrrolidinoethylthio-4,p-chlorophenyl-3H-1,5-benzodiazepine iodomethylate] | 40 | 40 | 20 | 40 | – |
| CCN(CC)CCSC1=Nc2ccccc2N=C(c2ccc(Cl)cc2)C1 [Compound 17, 2,beta,N-diethylaminoethylthio-4,p-chlorophenyl-3H-1,5-benzodiazepine^.HCl] | 20 | 20 | 40 | – | – |
| CC[N+](C)(CC)CCSC1=Nc2ccccc2N=C(c2ccc(Cl)cc2)C1 [Compound 18, 2,beta,N-diethylaminoethylthio-4,p-chlorophenyl-3H-1,5-benzodiazepine iodomethylate] | 20 | – | 40 | 20 | – |
| CCN(CC)CCCSC1=Nc2ccccc2N=C(c2ccc(Cl)cc2)C1 [Compound 19, 2,gamma,N-diethylaminopropylthio-4,p-chlorophenyl-3H-1,5-benzodiazepine^. HCl] | 40 | 40 | 40 | 80 | – |
| CC[N+](C)(CC)CCCSC1=Nc2ccccc2N=C(c2ccc(Cl)cc2)C1 [Compound 20, 2,gamma,N-diethylaminopropylthio-4,p-chlorophenyl-3H-1,5-benzodiazepine iodomethylate] | 80 | 40 | 20 | 80 | – |
| CCN(CC)CCSC1=Nc2ccccc2N=C(c2cccc(Cl)c2)C1 [Compound 21, 2,beta,N-diethylaminothylthio-4,m-chlorophenyl-3H-1,5-benzodiazepine^. HCl] | 20 | 40 | 40 | 80 | – |
| CC[N+](C)(CC)CCSC1=Nc2ccccc2N=C(c2cccc(Cl)c2)C1 [Compound 22, 2,beta,N-diethylaminoethylthio-4,m-chlorophenyl-3H-1,5-benzodiazepine iodomethylate] | 80 | 40 | 20 | 40 | – |
| CC[N+](C)(CC)CCSC1=Nc2ccccc2N=C(c2ccccc2Cl)C1 [Compound 24, 2,β,N-diethylaminoethylthio-4,o-chlorophenyl-3H-1,5-benzodiazepine iodomethylate] | – | – | 80 | – | – |
| CCN(CC)CCSC1=Nc2ccccc2N=C(c2ccc(Oc3ccccc3)cc2)C1 [Compound 27, 2,beta,N-diethylaminoethylthio-4,p-phenoxyphenyl-3H-1,5-benzodiazepine.HCl] | 10 | – | – | 80 | – |
| CC[N+](C)(CC)CCSC1=Nc2ccccc2N=C(c2ccc(Oc3ccccc3)cc2)C1 [Compound 28, 2,beta,N-diethylaminoethylthio-4,p-phenoxyphenyl-3H-1,5-benzodiazepine iodomethylate] | – | – | – | – | 1 |
| CCN(CC)CCSC1=Nc2ccccc2N=C(c2ccc(Sc3ccccc3)cc2)C1 [Compound 29, 2,beta-N-diethylaminoethylthio-4,p-phenylthiophenyl-3H-1,5-benzodiazepine.HOl] | – | – | – | 80 (≈ 174 µM) | – |
| CC[N+](C)(CC)CCSC1=Nc2ccccc2N=C(c2ccc(Sc3ccccc3)cc2)C1 [Compound 30, 2,beta,N-diethylaminoethylthio-4,p-phenylthio-phenyl-3H-1,5-benzodiazepine iodomethylate] | 10 | – | – | – | 1 |
| CC[N+](CC)(CCSC1=Nc2ccccc2N=C(c2ccc(Sc3ccccc3)cc2)C1)Cc1ccccc1 [Compound 31, 2,beta,N-diethylaminoethylthio-4,p-phenylthio-phenyl-3H-1,5-benzodiazepine bromobenzylate] | 10 | – | – | – | > 3 |
| CN1CCN(CCSC2=Nc3ccccc3N=C(c3ccc(Sc4ccccc4)cc3)C2)CC1 [Compound 34, 2,beta,N(N'-methyl)piperazinoethylthio-4,p-phenylthiophenyl-3H-1,5-benzodiazepine citrate] | 40 | – | – | – | > 3 |
| C[N+]1(C)CCN(CCSC2=Nc3ccccc3N=C(c3ccc(Sc4ccccc4)cc3)C2)CC1 [Compound 35, 2,beta,N(N'-methyl)piperazinoethylthio-4,p-phenylthiophenyl-3H-1,5-benzodiazepine monoiodomethylate] | 10 | – | – | – | 2 |

| Compound | MIC [1] [µg/mL] | MIC [2] [µg/mL] | MIC [3] [µg/mL] | MIC [4] [µg/mL] | APR8: difference between logarithms of EID95 of controls and of treated eggs [5] |
| --- | --- | --- | --- | --- | --- |
| C[N+]1(C)CC[N+](C)(CCSC2=Nc3ccccc3N=C(c3ccc(Sc4ccccc4)cc3)C2)CC1 [Compound 36, 2,beta,N(N'-methyl)piperazinoethylthio-4-p-phenylthiophenyl-3H-1,5-benzodiazepine bis-iodomethylate] | 80 | – | – | 160 | – |
| c1ccc(Sc2ccc(C3=Nc4ccccc4N=C(SCCCN4CCCC4)C3)cc2)cc1 [Compound 37, 2,gamma,pyrrolidinopropylthio-4,p-phenylthiophenyl-3H-1,5-benzodiazepine.HC] | 5 (≈ 10.6 µM) | 5 (≈ 10.6 µM) | 5 (≈ 10.6 µM) | – | – |
| c1ccc(Sc2ccc(C3=Nc4ccccc4N=C(SCCN4CCCC4)C3)cc2)cc1 [Compound 43, 2,beta,N-pyrrolidinoethylthio-4,p-phenylthiophenyl-3H-1,5-benzodiazepine] | 1.25 (≈ 2.73 µM) | 1.25 (≈ 2.73 µM) | – | – | – |
| CN(C)CCSC1=Nc2ccccc2N=C(c2ccc(Sc3ccccc3)cc2)C1 [Compound 45, 2,beta,N-dimethylaminoethylthio-4,p-phenylthiophenyl-3H-1,5-benzodiazepine citrate] | 20 | – | – | – | – |
| CCN(CC)CCSC1=Nc2ccccc2N=C(c2ccccc2)C1 [Compound 53] | 80 (≈ 228 µM) | – | 80 (≈ 228 µM) | 80 (≈ 228 µM) | – |
| c1ccc(C2=Nc3ccccc3N=C(SCCN3CCCC3)C2)cc1 [Compound 57] | 160 (≈ 458 µM) | 80 (≈ 229 µM) | 80 (≈ 229 µM) | – | – |
| C[N+]1(CCSC2=Nc3ccccc3N=C(c3ccccc3)C2)CCCC1 [Compound 58] | – | – | – | – | 1 |
| c1ccc(C2=Nc3ccccc3N=C(SCCN3CCCCC3)C2)cc1 [Compound 59] | 80 (≈ 220 µM) | – | 80 (≈ 220 µM) | 160 (≈ 440 µM) | – |
| C[N+]1(CCSC2=Nc3ccccc3N=C(c3ccccc3)C2)CCOCC1 [Compound 62] | – | – | – | – | 1 |
| CN1CCN(CCSC2=Nc3ccccc3N=C(c3ccccc3)C2)CC1 [Compound 63] | – | – | – | – | 1 |
| CCN(CC)CCSC1=Nc2ccccc2N=C(c2ccc(OC)cc2)C1 [Compound 69] | – | 80 (≈ 210 µM) | – | – | – |
| CCN(CC)CCSC1=Nc2ccccc2N=C(c2ccc(Br)cc2)C1 [Compound 71] | 10 (≈ 23.2 µM) | 10 (≈ 23.2 µM) | 20 (≈ 46.5 µM) | 80 (≈ 186 µM) | – |
| CC[N+](C)(CC)CCSC1=Nc2ccccc2N=C(c2ccc(Br)cc2)C1 [Compound 72] | 20 | 20 | 10 | 20 | – |
| CC[N+](C)(CC)CCSC1=Nc2ccccc2N=C(c2ccc(SC)cc2)C1 [Compound 74] | 10 | 10 | 20 | 40 | – |
| CCSc1ccc(C2=Nc3ccccc3N=C(SCC[N+](C)(CC)CC)C2)cc1 [Compound 76] | 10 | 10 | 10 | 20 | – |
| CCCSc1ccc(C2=Nc3ccccc3N=C(SCCN(CC)CC)C2)cc1 [Compound 77] | 5 (≈ 11.7 µM) | 5 (≈ 11.7 µM) | 10 (≈ 23.5 µM) | – | – |
| CCCSc1ccc(C2=Nc3ccccc3N=C(SCC[N+](C)(CC)CC)C2)cc1 [Compound 78] | 1.25 | 1.25 | 1.25 | 10 | – |
| CC[N+](C)(CC)CCSC1=Nc2ccccc2N=C(c2ccc(SC(C)C)cc2)C1 [Compound 80] | 5 | 5 | 5 | 40 | – |
| CCCCSc1ccc(C2=Nc3ccccc3N=C(SCC[N+](C)(CC)CC)C2)cc1 [Compound 82] | 2.5 | 2.5 | 2.5 | 10 | – |
